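How tested: cells in 96-well plates exposed to compound for 48 hours at five concentrations. Here, GI50 denotes the concentration required for 50% inhibition of growth.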 Active and inactive are the calls of the source. Cut-off read from the data, not from the text of the source: active = GI50 up to about 1.1 µM and inactive = higher.
How the values were obtained:
Assay in all cases: growth of human tumour cells (NCI), 48 h
[1] = tested on: KM12
[2] = tested on: IGROV-1
[3] = tested on: UO-31
[4] = tested on: MOLT-4
[5] = tested on: HCT-15
[6] = tested on: NCI-H460
[7] = tested on: SNB-19
[8] = tested on: OVCAR-3
[9] = tested on: OVCAR-8
[10] = tested on: SF-268
[11] = tested on: OVCAR-5
[12] = tested on: 786-0
[13] = tested on: LOX IMVI
[14] = tested on: SK-OV-3
[15] = tested on: CCRF-CEM
[16] = tested on: UACC-257
[17] = tested on: SW-620
[18] = tested on: SNB-75
[19] = tested on: HT-29
[20] = tested on: COLO 205

SMILES	GI50 [1]	GI50 [2]	GI50 [3]	GI50 [4]	GI50 [5] [µM]	GI50 [6]	GI50 [7]	GI50 [8]	GI50 [9]	GI50 [10]	GI50 [11]	GI50 [12]	GI50 [13]	GI50 [14]	GI50 [15]	GI50 [16]	GI50 [17]	GI50 [18]	GI50 [19]	GI50 [20]
Cc1ccc(C2NC(=O)c3ccccc3N2)s1 (stereo not drawn)	4.61 µM (inactive)	6.67 µM (inactive)	7.38 µM (inactive)	3.07 µM (inactive)	4.09	4.25 µM (inactive)	59.6 µM (inactive)	3.8 µM (inactive)	8.43 µM (inactive)	8 µM (inactive)	10 µM (inactive)	5.69 µM (inactive)	6.55 µM (inactive)	5.4 µM (inactive)	3.27 µM (inactive)	2.32 µM (inactive)	2.94 µM (inactive)	–	–	–
Cn1c(=O)c2c(nc(Cc3ccccc3)n2CC(=O)O)n(C)c1=O	> 100 µM (inactive)	> 100 µM (inactive)	> 100 µM (inactive)	> 100 µM (inactive)	> 100	> 100 µM (inactive)	> 100 µM (inactive)	> 100 µM (inactive)	> 100 µM (inactive)	> 100 µM (inactive)	> 100 µM (inactive)	> 100 µM (inactive)	> 100 µM (inactive)	–	> 100 µM (inactive)	> 100 µM (inactive)	> 100 µM (inactive)	> 100 µM (inactive)	> 100 µM (inactive)	–
Cc1ccc(S(=O)(=O)NCCSCCNS(=O)(=O)c2ccc(C)cc2)cc1	> 100 µM (inactive)	–	> 100 µM (inactive)	> 100 µM (inactive)	> 100	> 100 µM (inactive)	> 100 µM (inactive)	> 100 µM (inactive)	> 100 µM (inactive)	> 100 µM (inactive)	–	–	> 100 µM (inactive)	> 100 µM (inactive)	> 100 µM (inactive)	> 100 µM (inactive)	> 100 µM (inactive)	> 100 µM (inactive)	> 100 µM (inactive)	> 100 µM (inactive)
O=P(O)(O)CN1CCN(CP(=O)(O)O)CCN(CP(=O)(O)O)CCN(CP(=O)(O)O)CC1	41.8 µM (inactive)	> 100 µM (inactive)	> 100 µM (inactive)	41.3 µM (inactive)	27.8	29 µM (inactive)	> 100 µM (inactive)	> 100 µM (inactive)	77.6 µM (inactive)	> 100 µM (inactive)	73.8 µM (inactive)	> 100 µM (inactive)	> 100 µM (inactive)	–	44.9 µM (inactive)	> 100 µM (inactive)	42.6 µM (inactive)	> 100 µM (inactive)	69 µM (inactive)	32.4 µM (inactive)
COc1ccc2cc(/C=N\NC(=O)Nc3cccc4ccccc34)ccc2c1	67 µM (inactive)	66.1 µM (inactive)	87.3 µM (inactive)	34.1 µM (inactive)	67.5	17.9 µM (inactive)	22 µM (inactive)	–	24 µM (inactive)	52.6 µM (inactive)	69.5 µM (inactive)	12.9 µM (inactive)	33.9 µM (inactive)	–	21.3 µM (inactive)	32.4 µM (inactive)	74 µM (inactive)	11.1 µM (inactive)	39.2 µM (inactive)	46.7 µM (inactive)
Cc1ccc(-c2c(C#N)c(N)nc3c2CCS(=O)(=O)c2ccccc2-3)cc1	> 100 µM (inactive)	34.1 µM (inactive)	90.8 µM (inactive)	–	> 100	> 100 µM (inactive)	50.7 µM (inactive)	–	41 µM (inactive)	83.4 µM (inactive)	–	44.2 µM (inactive)	> 100 µM (inactive)	–	–	65 µM (inactive)	> 100 µM (inactive)	20.6 µM (inactive)	> 100 µM (inactive)	> 100 µM (inactive)
CC(C)OP(=O)(OC(C)C)c1ccc2c(c1)OCCOCCOCCOCCO2	> 100 µM (inactive)	> 100 µM (inactive)	> 100 µM (inactive)	> 100 µM (inactive)	> 100	> 100 µM (inactive)	> 100 µM (inactive)	–	> 100 µM (inactive)	> 100 µM (inactive)	–	> 100 µM (inactive)	95.7 µM (inactive)	> 100 µM (inactive)	> 100 µM (inactive)	> 100 µM (inactive)	> 100 µM (inactive)	> 100 µM (inactive)	> 100 µM (inactive)	> 100 µM (inactive)
CCOC(=O)C1(Cc2ccc3ccccc3c2)CCCCC(=O)N1 (stereo not drawn)	–	57 µM (inactive)	23.9 µM (inactive)	7.35 µM (inactive)	28.8	25.7 µM (inactive)	36.5 µM (inactive)	17.5 µM (inactive)	55.5 µM (inactive)	49.8 µM (inactive)	–	38.8 µM (inactive)	24.1 µM (inactive)	76 µM (inactive)	23.3 µM (inactive)	–	27.5 µM (inactive)	0.286 µM (active)	30.8 µM (inactive)	39.1 µM (inactive)
N#CCC(=O)N/N=C1/C(=O)N(c2ccc(Cl)cc2)C(=O)C(=O)C1c1nc2ccccc2s1 (stereo not drawn)	> 100 µM (inactive)	> 100 µM (inactive)	28.5 µM (inactive)	–	> 100	–	> 100 µM (inactive)	> 100 µM (inactive)	95.9 µM (inactive)	55.5 µM (inactive)	> 100 µM (inactive)	> 100 µM (inactive)	38.2 µM (inactive)	> 100 µM (inactive)	–	65.6 µM (inactive)	> 100 µM (inactive)	20.8 µM (inactive)	> 100 µM (inactive)	> 100 µM (inactive)
CC(=O)N1OC(C)CC1Nc1ccc(Br)cc1 (stereo not drawn)	1.44 µM (inactive)	> 100 µM (inactive)	0.0955 µM (active)	0.971 µM (active)	> 100	8.04 µM (inactive)	> 100 µM (inactive)	82.4 µM (inactive)	> 100 µM (inactive)	> 100 µM (inactive)	96.2 µM (inactive)	> 100 µM (inactive)	–	> 100 µM (inactive)	0.452 µM (active)	–	0.76 µM (active)	–	75.9 µM (inactive)	–
O=C(Cc1ccccc1)NN1C(=O)/C(=C\c2ccc(O)cc2)S/C1=N\c1ccccc1	> 100 µM (inactive)	> 100 µM (inactive)	> 100 µM (inactive)	95.5 µM (inactive)	> 100	> 100 µM (inactive)	> 100 µM (inactive)	> 100 µM (inactive)	> 100 µM (inactive)	> 100 µM (inactive)	> 100 µM (inactive)	> 100 µM (inactive)	–	> 100 µM (inactive)	> 100 µM (inactive)	> 100 µM (inactive)	> 100 µM (inactive)	50.7 µM (inactive)	> 100 µM (inactive)	> 100 µM (inactive)
OCc1ccccc1C1CSCSC1	> 100 µM (inactive)	–	> 100 µM (inactive)	> 100 µM (inactive)	> 100	> 100 µM (inactive)	–	> 100 µM (inactive)	> 100 µM (inactive)	> 100 µM (inactive)	–	–	> 100 µM (inactive)	> 100 µM (inactive)	> 100 µM (inactive)	> 100 µM (inactive)	> 100 µM (inactive)	> 100 µM (inactive)	> 100 µM (inactive)	–
COc1cc(OC)c2nc(C)c3c(c2c1)OCC3	> 100 µM (inactive)	> 100 µM (inactive)	> 100 µM (inactive)	> 100 µM (inactive)	> 100	> 100 µM (inactive)	47.3 µM (inactive)	> 100 µM (inactive)	> 100 µM (inactive)	47.2 µM (inactive)	> 100 µM (inactive)	61.1 µM (inactive)	> 100 µM (inactive)	–	> 100 µM (inactive)	> 100 µM (inactive)	> 100 µM (inactive)	61.2 µM (inactive)	> 100 µM (inactive)	> 100 µM (inactive)
COc1ccc(/C=N/n2cnc3[nH]c(C)c(Cc4ccccc4)c3c2=N)cc1	> 100 µM (inactive)	39.7 µM (inactive)	> 100 µM (inactive)	52.1 µM (inactive)	> 100	81.7 µM (inactive)	> 100 µM (inactive)	> 100 µM (inactive)	90.6 µM (inactive)	72.9 µM (inactive)	> 100 µM (inactive)	> 100 µM (inactive)	–	> 100 µM (inactive)	54.3 µM (inactive)	> 100 µM (inactive)	57.1 µM (inactive)	71.9 µM (inactive)	> 100 µM (inactive)	75.9 µM (inactive)
Cc1[nH]nc(-c2ccon2)c1N=O	21 µM (inactive)	23 µM (inactive)	19.8 µM (inactive)	2 µM (inactive)	18.2	36.1 µM (inactive)	26.9 µM (inactive)	18.4 µM (inactive)	17 µM (inactive)	20 µM (inactive)	19.3 µM (inactive)	20.4 µM (inactive)	–	26.3 µM (inactive)	–	17.4 µM (inactive)	21.2 µM (inactive)	32.2 µM (inactive)	18.2 µM (inactive)	19.9 µM (inactive)
N/C(S)=N/N=C/c1ccc(O)cn1	11.1 µM (inactive)	21.3 µM (inactive)	10.6 µM (inactive)	–	9.08	18.5 µM (inactive)	12.9 µM (inactive)	3.52 µM (inactive)	3.51 µM (inactive)	4.3 µM (inactive)	45 µM (inactive)	–	5.13 µM (inactive)	–	1.78 µM (inactive)	22.4 µM (inactive)	15.4 µM (inactive)	9.06 µM (inactive)	22.3 µM (inactive)	–

Reference: ChEMBL document CHEMBL1201862, “PubChem BioAssay data set” (2004)
